Measured values from the supplement of paper PMC8671470.

Tests used:
Conditions in all cases: 72 h
KG-1 [1] = tested on: KG-1
Outline: (§1)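 Seeded in RPMI 1640 at densities within the linear growth range, fifteen myeloid leukaemia cell lines were dispensed into 384-well plates with acoustically pre-printed compounds spanning five tenfold doses from 1 to 10,000 nM, in duplicate. The plates were kept for 72 h at 37 °C in 5% CO2 before luminescent ATP viability was measured and normalised to vehicle and to a positive control at 10 µM. Curves were fitted with a four-parameter log-logistic model. The IC50 was taken from those curves.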

KU-812 [2] = tested on: KU-812
Outline: as §1

MV4-11 [3] = tested on: MV4-11
Outline: as §1

THP-1 [4] = tested on: THP-1
Outline: as §1

MOLM-13 [5] = tested on: MOLM-13
Outline: as §1

NOMO-1 [6] = tested on: NOMO-1
Outline: as §1

HEL [7] = tested on: HEL
Outline: as §1

HL-60 [8] = tested on: HL-60
Outline: as §1

ML-2 [9] = tested on: ML-2
Outline: as §1

KCL-22 [10] = tested on: KCL-22
Outline: as §1

LAMA-84 [11] = tested on: LAMA-84
Outline: as §1

Mono-Mac-6 [12] = tested on: Mono-Mac-6
Outline: as §1

SHI-1 [13] = tested on: SHI-1
Outline: as §1

BV-173 [14] = tested on: BV-173
Outline: as §1

K-562 [15] = tested on: K-562
Outline: as §1

KG-1 [16] = experiment: cell viability (% survival relative to DMSO control, bortezomib = 0%); higher = less cytotoxic
Outline: (§2)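 Percent survival figures are means of duplicate wells. They were obtained by CellTiter-Glo luminescence after 10 AML and 5 CML cell lines spent 72 h at 37 °C with 5% CO2 in 384-well plates with compounds at 1, 10, 100, 1000 or 10000 nM. Vehicle was set to 100% and a 10 µM positive control to 0%.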

KU-812 [17] = experiment: as above
Outline: as §2

MV4-11 [18] = experiment: as above
Outline: as §2

THP-1 [19] = experiment: as above
Outline: as §2

MOLM-13 [20] = experiment: as above
Outline: as §2

NOMO-1 [21] = experiment: as above
Outline: as §2

HEL [22] = experiment: as above
Outline: as §2

HL-60 [23] = experiment: as above
Outline: as §2

ML-2 [24] = experiment: as above
Outline: as §2

KCL-22 [25] = experiment: as above
Outline: as §2

LAMA-84 [26] = experiment: as above
Outline: as §2

Mono-Mac-6 [27] = experiment: as above
Outline: as §2

SHI-1 [28] = experiment: as above
Outline: as §2

BV-173 [29] = experiment: as above
Outline: as §2

K-562 [30] = experiment: as above
Outline: as §2

CCn1c(=Cc2cccc[n+]2CC)sc(=C2Sc3ccccc3N2C)c1=O [MKT 077]
Conditions	IC50 (cell viability) [µM]
BV-173 [14]	> 10
HEL [7]	> 10
HL-60 [8]	4.45
K-562 [15]	3.59
KCL-22 [10]	> 10
KG-1 [1]	> 10
KU-812 [2]	> 10
LAMA-84 [11]	> 10
ML-2 [9]	> 10
MOLM-13 [5]	3.76
MV4-11 [3]	3.37
Mono-Mac-6 [12]	> 10
NOMO-1 [6]	> 10
SHI-1 [13]	3.28
THP-1 [4]	> 10

cell viability [%]
Conditions	1 nM	10 nM	100 nM	1000 nM	10000 nM
BV-173 [29]	107	108	102	95.2	83.4
HEL [22]	117	87	95.7	105	125
HL-60 [23]	101	84.5	101	136	2.97
K-562 [30]	109	88.1	103	108	1.35
KCL-22 [25]	106	98.5	90	103	107
KG-1 [16]	99	103	138	102	79.3
KU-812 [17]	101	103	107	98.3	61.8
LAMA-84 [26]	105	94.7	114	104	71.6
ML-2 [24]	91.7	98	106	102	101
MOLM-13 [20]	115	108	119	115	0.148
MV4-11 [18]	113	99.9	109	104	0.22
Mono-Mac-6 [27]	100	110	112	102	87.8
NOMO-1 [21]	98	96.2	98.1	94	95.2
SHI-1 [28]	95.9	98.7	97.3	98.8	2.85
THP-1 [19]	99.6	105	108	98.2	86.1

CN(Cc1cnc2nc(N)nc(N)c2n1)c1ccc(C(=O)N[C@@H](CCC(=O)O)C(=O)O)cc1 [Methotrexate]
Conditions	IC50 (cell viability) [µM]
BV-173 [14]	0.0323
HEL [7]	0.0037
HL-60 [8]	0.00701
K-562 [15]	0.033
KCL-22 [10]	0.0126
KG-1 [1]	> 10
KU-812 [2]	0.0157
LAMA-84 [11]	0.00473
ML-2 [9]	0.00965
MOLM-13 [5]	0.00757
MV4-11 [3]	0.00896
Mono-Mac-6 [12]	0.00826
NOMO-1 [6]	0.0515
SHI-1 [13]	0.0808
THP-1 [4]	0.0319

cell viability [%]
Conditions	1 nM	10 nM	100 nM	1000 nM	10000 nM
BV-173 [29]	107	98.3	2.71	1.64	2.28
HEL [22]	102	18.6	27.9	6.63	7.79
HL-60 [23]	81.5	32	5.38	7.28	8.39
K-562 [30]	86.9	103	13.3	18.9	21.7
KCL-22 [25]	97.1	59.2	40.4	21.1	20.7
KG-1 [16]	104	93.8	98.9	94.3	92.9
KU-812 [17]	99	63.1	38.9	33.3	42.5
LAMA-84 [26]	98.8	34	22.7	19.4	20.8
ML-2 [24]	109	49.7	3.59	3.44	4.58
MOLM-13 [20]	88.1	33.1	0.91	0.853	0.962
MV4-11 [18]	112	45.4	3.4	2.47	3.21
Mono-Mac-6 [27]	105	44.3	5.95	7.21	7.86
NOMO-1 [21]	108	94.8	40.4	29.4	30.8
SHI-1 [28]	83.7	90.7	44.4	35.8	47.1
THP-1 [19]	99.8	96.6	13	10.3	11.8

COC(=O)c1cc2c(C(F)(F)F)cc(-c3ccccc3)cc2n1O [NHI-2]
Conditions	IC50 (cell viability) [µM]
BV-173 [14]	> 10
HEL [7]	> 10
HL-60 [8]	> 10
K-562 [15]	> 10
KCL-22 [10]	> 10
KG-1 [1]	> 10
KU-812 [2]	> 10
LAMA-84 [11]	> 10
ML-2 [9]	> 10
MOLM-13 [5]	> 10
MV4-11 [3]	> 10
Mono-Mac-6 [12]	> 10
NOMO-1 [6]	> 10
SHI-1 [13]	> 10
THP-1 [4]	> 10

cell viability [%]
Conditions	1 nM	10 nM	100 nM	1000 nM	10000 nM
BV-173 [29]	100	100	101	73.7	94.2
HEL [22]	83.5	91.9	90.4	89.4	92.5
HL-60 [23]	98.5	90.3	95.2	97.2	96.8
K-562 [30]	98.8	91.1	93.8	87.4	85.4
KCL-22 [25]	91.9	88.8	104	110	92.7
KG-1 [16]	97.6	90.8	100	85.9	97.7
KU-812 [17]	97.6	96.9	97.7	96.8	84.3
LAMA-84 [26]	91.9	95	93.9	87.5	76.4
ML-2 [24]	94.8	95.1	109	102	107
MOLM-13 [20]	87	80.6	91.3	95.6	105
MV4-11 [18]	99.7	91.1	91.2	85.3	94.3
Mono-Mac-6 [27]	93.6	102	114	89.5	103
NOMO-1 [21]	101	102	92.2	97.4	102
SHI-1 [28]	96.6	104	97.3	93.6	96.9
THP-1 [19]	97.4	99.3	104	98.9	108
